Data published in US20260174677A1, “METHODS OF TREATING INSULIN RESISTANCE AND ASSOCIATED DISORDERS” (The University of Melboune, priority 2022, published 2026).

Columns and labels:
[1] = I.C.V. fluorosamine in obese AgRP-Cas9 mice given AAV-gScrambled or AAV-gIR; format: in vivo, mouse; details: 100 μg/animal I.C.V. daily for 10 days
Experimental: Metabolic measurements were undertaken in the Melbourne Mouse Metabolic Phenotyping Platform (The University of Melbourne, Australia). Glucose tolerance tests were performed on 6 h fasted conscious mice respectively by injecting D-glucose (2 mg/g of lean body mass and 1 mg/g lean mass for db/db and HFHS+STZ mice) into the peritoneal cavity and measuring glucose in tail blood immediately before and at 15, 30, 45, 60, 90 and 120 min after injection using an Accu-Check glucometer (Roche, Germany). The areas under glucose excursion curves were determined and expressed as mmol/1×min. Fasted (12 h fast) plasma insulin or glucose levels were determined using a Rat/Mouse Insulin ELISA (EZRMI-13K, Merck Millipore, CA) or an Accu-Check glucometer respectively. The HOMA-IR was calculated using the equation [(glucose×insulin)/405]. Adiposity was measured using TD-NMR minispec (Bruker Optics Inc., Billerica, MA).
Mice were acclimated for 24 h and then monitored for 48 h in an environmentally controlled Promethion Metabolic Screening System (Sable Systems International, NV) fitted with indirect open circuit calorimetry, food consumption and activity monitors to measure activity, caloric intake and energy expenditure. Respiratory quotients were calculated as the ratio of CO2 production over O2 consumption respiratory exchange ratio and energy expenditure was calculated using the Weir equation (Kcal h-1=60×(0.003941×VO2+0.001106×VCO2). To account for difference in body mass/composition energy expenditure was analysed and adjusted using ANCOVA using scripts available at the National Mouse Metabolic Phenotyping Centers (MMPC, Nashville, TN, USA) Energy Expenditure Analysis Page (https://www.mmpc.org/shared/regression.aspx).
Under isoflurane anaesthetic 12-week HFHS fed C57BL/6J or AgRP-Cas9 mice were implanted stereotaxically with guide cannulas into the right lateral ventricle (0.2 mm posterior, 1.0 mm lateral from bregma). Guide cannula was positioned 1.3 mm above the injection site (1 mm ventral to the surface of the skull). AgRP-Cas9 mice were treated with either AAV-gScrambled or AAV-gIR and underwent guide cannula placement 7 days post AAV administration. Mice were administered I.C.V. vehicle (ddH2O), fluorosamine (100 μg/animal/day or 250 μgl/animal/day) in a volume of 2 μl/animal and all compounds were delivered approximately 1 h before lights off […].

ARC CSPG-ECM = assay: Intranasal PZ6005 in diet-induced obese mice: WFA immunostaining of CSPG-ECM within the ARC; format: in vivo, mouse; details: 14 days; for ARC CSPG-ECM area, lower than the controls / ARC CSPG-ECM intensity, decrease: 12-week-HFHS-diet-fed obese mice
Experimental: For detection of aggrecan, GFP, HABP, parvalbumin, mCherry, versican, tenascin-C, HAPLN1, neurocan, phosphacan, brevican, WFA and WFA-FITC sections were incubated at room temperature for 1 h in blocking buffer (0.3% Triton X-100, 5% normal goat serum, Gibco, ThermoFisher, MA, 0.02% sodium azide) and then overnight at 4° C. in 1% blocking buffer containing either rabbit anti-aggrecan (1:1000, AB1031, Millipore, MA), chicken anti-GFP (1:2000; ab13970, Abcam, Cambridge, UK), Biotinylated HABP (1:100, 385911, Burlington, MA), sheep anti-parvalbumin (1:1000), in house), rabbit anti-dsRed (1:2000, 600-401-379, Rockland, PA), rabbit anti-versican (1:1000, AB1033, Millipore, MA), tenascin-C (1:500, M1-B4, Developmental Studies Hybridoma Bank, Iowa), HAPLN1 (1:500, 9/30/8-A-4, Developmental Studies Hybridoma Bank, Iowa), neurocan (1:300, 1F6-S, Developmental Studies Hybridoma Bank, Iowa), phophacan (1:300, 3F8, Developmental Studies Hybridoma Bank, Iowa), brevican (1:500, 610895, BD Transduction Laboratories), biotinylated WFA (1:2000, L1516; Sigma-Aldrich, MO), WFA-FITC (1:2000, FL-1351-2, Vector Laboratories, CA), rabbit anti PGP9.5 (1:1000, 14730-1-AP, Proteintech, IL), guinea pig anti AgRP (1:500, AS506, Antibodies Australia, Melbourne, AUS). After washing with PBS-T (0.3% Triton X-100 in PBS, +0.02% sodium azide), sections were incubated with goat anti-chicken Alexa Fluor 488 (ab150169, Abcam, Cambridge, UK), goat anti-rabbit Alexa Fluor-488, 595, 647 (ab150077, ab150080, ab150083, Abcam, Cambridge, UK), donkey anti-sheep Alexa Fluor 594 (ab150180, Abcam, Cambridge, UK), Alexa Fluor 594, 647 Streptavidin (405240, BioLegend, CA)—conjugated secondary antibodies in 5% blocking buffer for 2 h at room temperature. […] Brightness and contrast in the colour merged images have been adjusted to aid in the analysis of co-incidence.
All image quantification was performed in Image J (NIH) software (NIH, MA). Raw images underwent background subtraction using a rolling ball algorithm to minimize background and any potential variance in tissue autofluorescence. To quantify area and intensity of the CSPG-ECM within each brain region (ARC, VMH or RSG cortex) images were thresholded and binarized to create a region of interest (ROI) mask of only the CSPG-ECM. For each brain area, CSPG-ECM ROI area (μm^2) and intensity (sum of all pixel intensities within the ROI) was calculated. This process was automated to minimise bias and to account for differences in brain nuclei size across multiple images. Brain nuclei were defined in accordance with the Paxinos and Franklin mouse brain atlas (http://labs.gaidi.ca/mouse-brain-atlas/). The area and intensity of CSPG-ECM within each region was normalised to the respective control.
Conscious mice were restrained by scruffing and inverted parallel to the floor with the chin at ˜180-degree angle with the neck. Using a 10 μL tip, a pipettor was loaded with 5 μl of vehicle (ddH2O) or fluorosamine (1 mg/animal in 20 μl or 5 mg/animal in 20 μl). The tip of the filled pipettor was placed near the left nostril at a 45-degree angle, and the drug was ejected to form a small 5 μl droplet at tip for the mouse to inhale. Immediately after the mouse inhaled the first droplet the remaining solution was ejected to form another small droplet for the mouse to inhale through the same nostril. The mouse was held in this position for 15 seconds before the procedure was repeated in the right nostril.

[2] = control AAV-gScrambled AgRP-Cas9 mice

## CC(=O)NC1C(OC(C)=O)OC(COC(C)=O)[C@@H](F)C1OC(C)=O (some centres unmarked) [fluorosamine, per-O-acetylated-4-F-N-acetylglucosamine]
[1]; AAV-IR AgRP-Cas9 mice (AgRP insulin receptor disrupted)
  positive metabolic outcomes of treatment: mitigated, at least in part
[1]; [2]
  adiposity: reduced adiposity
  body weight: promoted weight loss
  caloric intake: attenuated caloric intake
  energy expenditure: enhanced energy expenditure independently of ambulatory activity
  glycaemic control: improved glycaemic control
ARC CSPG-ECM; I.N. 1 mg/animal/day
  ARC CSPG-ECM area, lower than the controls: 13.54±1.03%
  ARC CSPG-ECM intensity, decrease: 15.94±7.17%
ARC CSPG-ECM; I.N. 5 mg/animal/day (highest dose)
  ARC CSPG-ECM intensity, decrease: 30.16±1.52%
ARC CSPG-ECM; I.N. 5 mg/animal/day
  ARC CSPG-ECM area, lower than the controls: 13.59±4.09%
ARC CSPG-ECM; intranasal, diet-induced obese mice, dose not given
  ARC neurofibrosis: successfully attenuated ARC neurofibrosis
